Experimental data: the CheMixHub drug solubility set

Experiment: xn = mol fraction of the nth substance listed, in the solute-free solvent

O=C(O)c1ccc(C(=O)O)o1 + C1CCOC1 + O
solubility (g/100 g solution)
Conditions	293.15 K	298.15 K	303.15 K	308.15 K	313.15 K	318.15 K	323.15 K	328.15 K	333.15 K
x2 = 0.1	1.53	1.63	1.73	1.9	2.08	2.35	2.63	2.88	3.15
x2 = 0.2	3.7	3.93	4.22	4.48	4.77	5.08	5.38	5.73	6.11
x2 = 0.3	4.89	5.24	5.6	5.94	6.31	6.69	7.1	7.45	7.84
x2 = 0.4	6.39	6.62	6.87	7.22	7.6	7.91	8.25	8.62	9.02
x2 = 0.5	6.7	6.95	7.21	7.48	7.76	8.1	8.47	8.86	9.32
x2 = 0.6	6.58	6.9	7.24	7.5	7.81	8.16	8.54	9.01	9.52
x2 = 0.7	6.04	6.39	6.76	7.09	7.43	7.77	8.14	8.5	8.9
x2 = 0.8	4.95	5.3	5.68	5.96	6.26	6.51	6.79	7.11	7.47
x2 = 0.9	3.55	3.67	3.81	3.98	4.16	4.33	4.51	4.74	4.98

Oc1ccc(Cl)c2cccnc12 + C1COCCO1 + CCO
solubility (g/100 g solution)
Conditions	278.15 K	283.15 K	288.15 K	293.15 K	298.15 K	303.15 K	308.15 K	313.15 K	318.15 K	323.15 K
x2 = 0.1156	2.02	2.27	2.73	3.17	3.66	4.34	5.1	5.96	7.04	8.35
x2 = 0.2585	3.35	3.86	4.46	5.19	6.15	7.28	8.38	9.82	11.4	13.3
x2 = 0.4396	4.92	5.68	6.53	7.56	8.72	10.3	11.9	13.8	15.9	18.2
x2 = 0.6765	6.81	7.83	8.96	10.3	11.8	13.8	15.8	17.9	20.5	23.3

O=C(O)c1ccc(C(=O)O)o1 + C1COCCO1 + O
solubility (g/100 g solution)
Conditions	303.15 K	308.15 K	313.15 K	318.15 K	323.15 K	328.15 K	333.15 K	338.15 K	343.15 K
x2 = 0.1	1.85	1.98	2.15	2.38	2.63	2.92	3.24	3.48	3.73
x2 = 0.2	3.44	3.54	3.81	4.02	4.28	4.56	4.78	5.12	5.5
x2 = 0.3	3.8	4.14	4.34	4.76	5.21	5.62	6.07	6.46	7.05
x2 = 0.4	4.76	5.23	5.55	5.79	6.04	6.37	6.72	7.27	7.87
x2 = 0.5	4.37	4.77	5.03	5.38	5.75	6.1	6.48	6.97	7.5
x2 = 0.6	3.77	4.11	4.39	4.66	5	5.3	5.63	6.04	6.44
x2 = 0.7	3.03	3.32	3.51	3.71	3.94	4.25	4.48	4.89	5.36
x2 = 0.8	2.38	2.62	2.75	2.96	3.11	3.32	3.55	3.81	4.1
x2 = 0.9	1.3	1.42	1.54	1.73	1.93	2.11	2.35	2.61	2.87

O=C(O)c1cc([N+](=O)[O-])ccc1O + CC#N + O
solubility (g/100 g solution)
Conditions	278.15 K	283.15 K	288.15 K	293.15 K	298.15 K	303.15 K	308.15 K	313.15 K	318.15 K	323.15 K
x2 = 0.04651	0.16	0.194	0.238	0.291	0.357	0.446	0.552	0.685	0.838	1.03
x2 = 0.0989	0.399	0.59	0.782	0.967	1.18	1.42	1.71	2.02	2.34	2.73
x2 = 0.1583	1.06	1.33	1.68	2.11	2.54	3.11	3.71	4.38	5.16	6.05
x2 = 0.2264	2.36	2.8	3.34	4.03	4.74	5.57	6.57	7.63	8.9	10.3
x2 = 0.3051	3.97	4.82	5.77	6.86	8.19	9.58	11.1	12.7	14.5	16.6
x2 = 0.397	7.03	7.9	8.98	10.4	11.9	13.8	15.9	18.1	20.2	22.5
x2 = 0.506	9.09	10.3	11.8	13.6	15.5	17.5	19.6	21.8	23.9	26.2
x2 = 0.6372	10.7	11.8	13.5	15.5	17.8	19.9	21.9	24.7	26.9	28.9
x2 = 0.798	12	13.3	15	17.2	19.5	21.5	24.3	26.8	29.3	31.8

COC1=CC(=O)CC(C)C12Oc1c(Cl)c(OC)cc(OC)c1C2=O (stereo not drawn) + CC(=O)CC(C)C + CC(C)O
solubility (g/100 g solution)
Conditions	283.15 K	288.15 K	293.15 K	298.15 K	303.15 K	308.15 K	313.15 K	318.15 K	323.15 K
x2 = 0.1	0.154	0.185	0.226	0.307	0.335	0.47	0.53	0.62	0.76
x2 = 0.2	0.251	0.304	0.345	0.441	0.514	0.683	0.713	0.852	1.01
x2 = 0.3	0.353	0.405	0.473	0.568	0.67	0.869	0.938	1.11	1.3
x2 = 0.4	0.433	0.519	0.591	0.73	0.812	1.04	1.09	1.27	1.46
x2 = 0.5	0.533	0.589	0.688	0.841	0.939	1.19	1.23	1.42	1.62
x2 = 0.6	0.595	0.655	0.751	0.902	1.03	1.27	1.33	1.5	1.72
x2 = 0.7	0.642	0.758	0.833	0.943	1.08	1.31	1.37	1.58	1.77
x2 = 0.8	0.675	0.753	0.823	0.973	1.1	1.33	1.39	1.59	1.79
x2 = 0.9	0.675	0.727	0.817	0.955	1.1	1.29	1.35	1.51	1.68

CC(=O)OC(c1ccccc1)C(Cl)(Cl)Cl (stereo not drawn) + CC(=O)O + O
solubility (g/100 g solution)
Conditions	288.15 K	293.15 K	298.15 K	303.15 K	308.15 K	313.15 K	318.15 K	323.15 K	328.15 K
x2 = 0.4	0.229	0.34	0.495	0.65	0.966	1.43	1.81	2.64	3.12
x2 = 0.5	0.758	0.967	1.23	1.62	2.27	2.97	3.85	5.28	7.16
x2 = 0.6	1.45	2.06	2.67	3.47	4.47	5.57	7.52	10.1	13.4
x2 = 0.7	2.88	3.73	4.74	6.03	7.75	9.86	12.5	16.9	23.4
x2 = 0.8	4.78	6.15	7.58	9.47	12	15.1	19.5	25.6	33.9
x2 = 0.9	7.43	9.03	10.9	13.5	17	21.2	26.5	33.8	42.7

COC1=CC(=O)CC(C)C12Oc1c(Cl)c(OC)cc(OC)c1C2=O (stereo not drawn) + CC(C)=O + CC(C)O
solubility (g/100 g solution)
Conditions	283.15 K	288.15 K	293.15 K	298.15 K	303.15 K	308.15 K	313.15 K	318.15 K	323.15 K
x2 = 0.1	0.176	0.236	0.261	0.31	0.375	0.463	0.602	0.688	0.843
x2 = 0.2	0.338	0.422	0.511	0.55	0.668	0.817	0.967	1.11	1.3
x2 = 0.3	0.587	0.663	0.787	0.871	1.04	1.22	1.41	1.64	1.96
x2 = 0.4	0.84	0.915	1.06	1.23	1.44	1.7	1.94	2.17	2.51
x2 = 0.5	1.23	1.4	1.5	1.62	1.85	2.16	2.51	2.8	3.19
x2 = 0.6	1.56	1.76	1.94	2.08	2.34	2.72	3.08	3.41	3.89
x2 = 0.7	1.81	2.09	2.35	2.55	2.87	3.3	3.65	4.05	4.58
x2 = 0.8	2.16	2.39	2.72	2.95	3.38	3.76	4.19	4.67	5.21
x2 = 0.9	2.56	2.71	3.08	3.33	3.78	4.3	4.68	5.15	5.53
